Numbers after ± are expanded uncertainties.
Experiment: xn = mol fraction of the nth substance listed
Conditions: Liquid, dividing mass by volume

## CCCCCCCC [octane] + O=C=O
313.2 K, x2 = 0.11
  mass density: 730 ± 15 kg/m3
313.2 K, x2 = 0.2134
  mass density: 729 ± 15 kg/m3
313.2 K, x2 = 0.3377
  mass density: 729.3 ± 15 kg/m3
313.2 K, x2 = 0.4342
  mass density: 711.9 ± 14 kg/m3
313.2 K, x2 = 0.5534
  mass density: 692.7 ± 14 kg/m3
313.2 K, x2 = 0.6752
  mass density: 663.5 ± 13 kg/m3
313.2 K, x2 = 0.752
  mass density: 644.6 ± 13 kg/m3
313.2 K, x2 = 0.8581
  mass density: 585 ± 12 kg/m3
313.2 K, x2 = 0.9447
  mass density: 462.3 ± 9.3 kg/m3
333.2 K, x2 = 0.1573
  mass density: 683.6 ± 14 kg/m3
333.2 K, x2 = 0.206
  mass density: 678.5 ± 14 kg/m3
333.2 K, x2 = 0.2891
  mass density: 670.1 ± 13 kg/m3
333.2 K, x2 = 0.3593
  mass density: 660.5 ± 13 kg/m3
333.2 K, x2 = 0.4296
  mass density: 657.3 ± 13 kg/m3
333.2 K, x2 = 0.4956
  mass density: 641.9 ± 13 kg/m3
333.2 K, x2 = 0.5915
  mass density: 627.8 ± 13 kg/m3
333.2 K, x2 = 0.7413
  mass density: 556.8 ± 11 kg/m3
333.2 K, x2 = 0.8558
  mass density: 516.5 ± 10 kg/m3
333.2 K, x2 = 0.9383
  mass density: 436.1 ± 8.7 kg/m3
353.2 K, x2 = 0.1452
  mass density: 658.6 ± 13 kg/m3
353.2 K, x2 = 0.2452
  mass density: 651.5 ± 13 kg/m3
353.2 K, x2 = 0.3596
  mass density: 642.5 ± 13 kg/m3
353.2 K, x2 = 0.4373
  mass density: 635.4 ± 13 kg/m3
353.2 K, x2 = 0.4948
  mass density: 621.3 ± 12 kg/m3
353.2 K, x2 = 0.5783
  mass density: 614.8 ± 12 kg/m3
353.2 K, x2 = 0.6237
  mass density: 600.1 ± 12 kg/m3
353.2 K, x2 = 0.7761
  mass density: 585.8 ± 12 kg/m3
353.2 K, x2 = 0.8255
  mass density: 560 ± 11 kg/m3
353.2 K, x2 = 0.9154
  mass density: 458.2 ± 9.2 kg/m3
373.2 K, x2 = 0.2172
  mass density: 550.7 ± 11 kg/m3
373.2 K, x2 = 0.369
  mass density: 565.2 ± 11 kg/m3
373.2 K, x2 = 0.5134
  mass density: 584.2 ± 12 kg/m3
373.2 K, x2 = 0.5706
  mass density: 592.6 ± 12 kg/m3
373.2 K, x2 = 0.6538
  mass density: 591.7 ± 12 kg/m3
373.2 K, x2 = 0.7837
  mass density: 565.8 ± 11 kg/m3
373.2 K, x2 = 0.8522
  mass density: 516.3 ± 10 kg/m3
373.2 K, x2 = 0.902
  mass density: 425.1 ± 8.5 kg/m3
393.2 K, x2 = 0.156
  mass density: 510.3 ± 10 kg/m3
393.2 K, x2 = 0.2689
  mass density: 525.1 ± 10 kg/m3
393.2 K, x2 = 0.3933
  mass density: 531.4 ± 11 kg/m3
393.2 K, x2 = 0.4582
  mass density: 537.8 ± 11 kg/m3
393.2 K, x2 = 0.522
  mass density: 544.7 ± 11 kg/m3
393.2 K, x2 = 0.5922
  mass density: 546.8 ± 11 kg/m3
393.2 K, x2 = 0.6738
  mass density: 551.1 ± 11 kg/m3
393.2 K, x2 = 0.7464
  mass density: 553.2 ± 11 kg/m3
393.2 K, x2 = 0.8146
  mass density: 519.8 ± 10 kg/m3
393.2 K, x2 = 0.8728
  mass density: 400.2 ± 8 kg/m3
